Source: the NIST ThermoML archive (doi:10.1021/je0501639)

How the values were obtained:
[1] = refractive index (Na D-line) (dimensionless); xn = mol fraction of the nth substance listed; settings: 100.8 kPa, Liquid, Standard Abbe refractometry
[2] = xn = mol fraction of the nth substance listed; settings: 298.15 K, 100.8 kPa, Liquid

CC(C)(C)O [2-methylpropan-2-ol] + CC(C)CC(C)(C)C
refractive index, [1]
Settings	298.15 K	308.15 K	318.15 K
x1 = 0.05	1.38834	1.38325	1.37818
x1 = 0.1	1.38784	1.38271	1.37755
x1 = 0.15	1.38735	1.38219	1.37703
x1 = 0.2	1.38693	1.38177	1.37655
x1 = 0.25	1.3865	1.38135	1.37611
x1 = 0.3	1.38612	1.38095	1.3757
x1 = 0.35	1.38573	1.38055	1.37528
x1 = 0.4	1.38537	1.38021	1.37491
x1 = 0.45	1.38505	1.37986	1.37458
x1 = 0.5	1.38473	1.37955	1.37427
x1 = 0.55	1.38445	1.37926	1.37397
x1 = 0.6	1.3842	1.37903	1.37371
x1 = 0.65	1.38398	1.37881	1.37348
x1 = 0.7	1.38381	1.37862	1.37331
x1 = 0.75	1.38371	1.3785	1.37317
x1 = 0.8	1.38368	1.37847	1.37313
x1 = 0.85	1.38381	1.37858	1.37323
x1 = 0.9	1.38405	1.37879	1.37339
x1 = 0.95	1.38436	1.37914	1.37372
x1 = 1	1.38481	1.3796	1.37416

[2]
Settings	mass density [kg/m3]	viscosity [mPa·s]
x1 = 0.05	689.77	0.483
x1 = 0.1	691.89	0.509
x1 = 0.15	694.45	0.515
x1 = 0.2	697.14	0.553
x1 = 0.25	700.02	0.564
x1 = 0.3	703.12	0.598
x1 = 0.35	706.4	0.614
x1 = 0.4	709.87	0.665
x1 = 0.45	713.52	0.698
x1 = 0.5	717.43	0.765
x1 = 0.55	721.62	0.805
x1 = 0.6	726.19	0.912
x1 = 0.65	731.11	0.984
x1 = 0.7	736.55	1.107
x1 = 0.75	742.44	1.297
